According to patent US20260272883A1, “SOLID STATE FORMS OF PIRTOBRUTINIB AND PROCESS FOR THE PREPARATION OF INTERMEDIATE THEREOF” (DR. REDDY'S LABORATORIES LIMITED, priority 2023, published 2026):

What was measured:
[1] = Stability of crystalline form P1 under 80% RH (open condition) and illumination (300-400 nm); format: physicochemical
[2] = Stability of crystalline form P1 at 25° C./60% RH and 40° C./75% RH for 3 months (closed conditions); format: physicochemical

Which results are given for COc1ccc(F)cc1C(=O)NCc1ccc(-c2nn([C@@H](C)C(F)(F)F)c(N)c2C(N)=O)cc1 [Crystalline form P1 of Pirtobrutinib, (S)-5-amino-3-(4-((5-fluoro-2-methoxybenzamido)methyl)phenyl)-1-(1,1,1-trifluoropropan-2-yl)-1H-pyrazole-4-carboxamide]?
Purity ([1]; 0 Day): 98.9%; Purity ([1]; Exposure at 80% RH for 1 day (Open Condition)): 98.9%; Purity ([1]; Illumination (300-400 nm) for 24 hours): 98.9%; Stability ([1]; high humidity and illumination conditions): stable; Physical and chemical stability ([1]; kept at 80% RH in open condition): physically and chemically stable; Physical and chemical stability ([1]; kept under illumination (300-400 nm) for 24 hours): physically and chemically stable; Purity ([2]; 0 Day): 98.9%; Stability ([2]; 3 months at accelerated conditions): stable; Purity ([2]; 25° C./60% RH (Closed Condition) (3 months)): 98.7%; Physical and chemical stability ([2]; 25° C./60% RH for 3 months under closed conditions): physically and chemically stable; Purity ([2]; 40° C./75% RH (Closed Condition) (3 months)): 98.9%; Stability ([2]; 40° C./75% RH for 3 months under closed conditions): stable
